Test results taken from paper PMC9414972, “α-Glucosidase and α-Amylase Inhibitory Potentials of Quinoline–1,3,4-oxadiazole Conjugates Bearing 1,2,3-Triazole with Antioxidant Activity, Kinetic Studies, and Computational Validation” (Pharmaceuticals, 2022).
Where two headings read alike, the source gives them in different places.

Columns and labels:
[1] = DPPH radical scavenging activity
Procedure: The DPPH assay is used conventionally to quantify a compound’s ability to trap free radicals.
The compounds were evaluated for their ability to scavenge stable DPPH radicals, using a modification of the method by Turkoglu et al..

[2] = Ferric reducing antioxidant power (FRAP)
Procedure: FRAP is a ferric (Fe^3+) to ferrous (Fe^2+) ions reduction assay that measures a compound’s electron-donating capacity, i.e., the antioxidant’s reducing power.
The mixture was incubated at 50 °C for 20 min, followed by acidification with 100 μL trichloroacetic acid (10%). After centrifugation at 3500 rpm for 10 min, 200 μL of the supernatant was transferred into another test tube containing 200 μL of distilled water and 0.8 mL of FeCl3 (0.1%). Finally, the absorbance was read at 700 nm, and the total reductive antioxidant power was calculated thus: Ferric reducing antioxidant power (%)=Absorbance of compound/Absorbance of 500µM gallic acid×100

[3] = Nitric oxide (NO) scavenging activity
Procedure: The screening of the present compound series for NO radical scavenging activity (Table 2) identified excellent NO scavengers.
The antioxidant capacity of the compounds to scavenge nitric oxide radicals was determined using a modified version of the protocol by Kurian et al.. Briefly, 250 μL of sodium nitroprusside (10 mM) prepared in sodium phosphate buffer (pH 7.4) was added to 500 μL of the compound solution (62.5–500 μM) or distilled water (control). The resulting solution was incubated at 37 °C for 2 h. Then, 250 μL of Griess reagent was added to the reaction mixture before the absorbance was measured at 546 nm. The nitric oxide scavenging activity of the compounds was calculated with the formula: Nitric oxide scavenging (%)=1−Absorbance of compound/Absorbance of control×100

α-glucosidase = target: T1, α-glucosidase (Saccharomyces cerevisiae, UniProt P38158); assay: biochemical
T1 construct: purchased Merck
T1 sequence (P38158 whole entry): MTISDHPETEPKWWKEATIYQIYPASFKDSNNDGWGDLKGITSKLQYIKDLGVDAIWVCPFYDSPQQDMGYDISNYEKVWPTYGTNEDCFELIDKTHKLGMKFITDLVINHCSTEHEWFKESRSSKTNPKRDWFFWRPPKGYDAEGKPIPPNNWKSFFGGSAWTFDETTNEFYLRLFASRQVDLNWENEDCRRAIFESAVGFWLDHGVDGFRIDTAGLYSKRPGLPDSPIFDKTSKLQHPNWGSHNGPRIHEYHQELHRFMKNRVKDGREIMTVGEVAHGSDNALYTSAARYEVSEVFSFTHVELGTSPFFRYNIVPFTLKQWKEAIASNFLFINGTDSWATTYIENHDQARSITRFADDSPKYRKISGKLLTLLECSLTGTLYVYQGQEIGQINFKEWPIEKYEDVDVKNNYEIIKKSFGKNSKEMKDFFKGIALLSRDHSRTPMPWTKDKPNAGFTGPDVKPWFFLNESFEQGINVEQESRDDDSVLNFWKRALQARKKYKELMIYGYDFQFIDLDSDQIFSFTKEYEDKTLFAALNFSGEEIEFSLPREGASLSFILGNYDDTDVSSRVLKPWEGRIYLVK
Procedure: The α-glucosidase inhibitory activity was evaluated using a previous method with slight modifications.

[4] = target: T2, porcine pancreatic amylase (Sus scrofa, UniProt P00690); assay: α-Amylase inhibitory activity (starch/DNS); format: biochemical
T2 construct: purchased Merck
T2 sequence (P00690 16-511): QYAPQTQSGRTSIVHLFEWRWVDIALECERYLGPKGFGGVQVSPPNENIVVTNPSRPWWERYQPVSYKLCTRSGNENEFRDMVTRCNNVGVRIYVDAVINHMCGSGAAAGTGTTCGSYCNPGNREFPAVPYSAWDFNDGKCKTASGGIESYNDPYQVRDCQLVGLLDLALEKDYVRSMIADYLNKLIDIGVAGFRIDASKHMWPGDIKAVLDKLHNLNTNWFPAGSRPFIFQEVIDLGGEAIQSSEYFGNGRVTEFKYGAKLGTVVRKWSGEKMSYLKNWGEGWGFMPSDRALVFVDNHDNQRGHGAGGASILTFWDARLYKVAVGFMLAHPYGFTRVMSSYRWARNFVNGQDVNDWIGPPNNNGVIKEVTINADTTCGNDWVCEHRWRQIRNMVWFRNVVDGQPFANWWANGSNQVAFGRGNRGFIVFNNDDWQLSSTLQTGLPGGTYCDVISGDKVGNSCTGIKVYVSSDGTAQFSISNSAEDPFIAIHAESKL
Procedure: α-Amylase inhibitory activity was determined according to Ibitoye et al. with slight modifications. […] The reaction in the mixture was terminated with a 1 mL dinitrosalicylate reagent before boiling for 10 min. The cooled mixture was diluted with 5 mL distilled water, and the absorbance was read at 540 nm. The inhibitory activity was calculated using the formula below: % Inhibition=1−Absorbance of compound/Absorbance of control×100

[5] = DPPH radical scavenging, 30 min, 25 °C
[6] = ferric reducing antioxidant power
[7] = nitric oxide radical scavenging, 37 °C, 2 h
[8] = pNPG substrate, pH 6.8, 37 °C, read-out: IC50 α-Glucosidase
[9] = porcine pancreatic amylase, starch, pH 6.9, 25 °C, read-out: IC50 α-Amylase

Compound | IC50 [1, 5] [µM] | IC50 [2, 6] [µM] | IC50 [3, 7] [µM] | IC50 (α-glucosidase; [8]) [µM] | IC50 [4, 9] [µM] | melting point [°C] | IC50 [1] [µM] | IC50 [2] [µM] | IC50 [3] [µM] | IC50 (α-glucosidase) [µM] | IC50 [4] [µM]
Clc1ccc(Cn2cc(CSc3nnc(COc4cccc5cccnc45)o3)nn2)c(Cl)c1 [12i, 2-{[(1-(2,4-Dichlorobenzyl)-1H-1,2,3-triazol-4-yl)methyl]thio}-5-[(quinolin-8-yloxy)methyl]-1,3,4-oxadiazole] | 95.4 | > 500 | > 500 | 42.8 | > 500 | 124 to 130 |  |  |  |  | 
Fc1ccc(Cn2cc(CSc3nnc(COc4cccc5cccnc45)o3)nn2)cc1 [12e, 2-{[(1-(4-Fluorobenzyl)-1H-1,2,3-triazol-4-yl)methyl]thio}-5-[(quinolin-8-yloxy)methyl]-1,3,4-oxadiazole] | 92.8 | > 500 | > 500 | 39.3 | > 500 | 96 to 101 |  |  |  |  | 
CC(C)=CCSc1nnc(COc2cccc3cccnc23)o1 [4g, 2-[(3-Methylbut-2-en-1-yl)thio]-5-[(quinolin-8-yloxy)methyl]-1,3,4-oxadiazole] | 86.4 | > 500 | > 500 | 34.1 | > 500 |  |  |  |  |  | 
BrCCSc1nnc(COc2cccc3cccnc23)o1 [4h, 2-[(2-Bromoethyl)thio]-5-[(quinolin-8-yloxy)methyl]-1,3,4-oxadiazole] | 75.4 | > 500 | > 500 |  |  |  |  |  |  |  | 
Brc1ccc(-n2cc(CSc3nnc(COc4cccc5cccnc45)o3)nn2)cc1 [12n, 2-{[(1-(4-Bromophenyl)-1H-1,2,3-triazol-4-yl)methyl]thio}-5-[(quinolin-8-yloxy)methyl]-1,3,4-oxadiazole] | 92.2 | > 500 | > 500 | 35.2 | > 500 | 126 to 132 |  |  |  |  | 
Fc1ccc(CSc2nnc(COc3cccc4cccnc34)o2)c(F)c1 [4r, 2-[(2,4-Difluorobenzyl)thio]-5-[(quinolin-8-yloxy)methyl]-1,3,4-oxadiazole] | 64.5 | > 500 | > 500 | 28.2 | > 500 | 98.7 to 105.2 |  |  |  |  | 
CCCCCSc1nnc(COc2cccc3cccnc23)o1 [4d, 2-(Pentylthio)-5-[(quinolin-8-yloxy)methyl]-1,3,4-oxadiazole] | 82.9 | > 500 | 457 | 46.7 | > 500 | 84.6 to 90.1 |  |  |  |  | 
Oc1cccc2cccnc12 [8-HQ, 8-hydroxyquinoline, reference compound] |  |  |  |  |  |  | 51.8 | > 500 | 184 | 29.3 | > 500
Clc1ccc(-n2cc(CSc3nnc(COc4cccc5cccnc45)o3)nn2)cc1 [12l, 2-{[(1-(4-Chlorophenyl)-1H-1,2,3-triazol-4-yl)methyl]thio}-5-[(quinolin-8-yloxy)methyl]-1,3,4-oxadiazole] | 81.7 | > 500 | > 500 | 38 | > 500 | 132 to 136 |  |  |  |  | 
Brc1ccc(Cn2cc(CSc3nnc(COc4cccc5cccnc45)o3)nn2)cc1 [12f, 2-{[(1-(4-Bromobenzyl)-1H-1,2,3-triazol-4-yl)methyl]thio}-5-[(quinolin-8-yloxy)methyl]-1,3,4-oxadiazole] | 91.8 | > 500 | 482 | 56.4 | > 500 | 78 to 82 |  |  |  |  | 
CCSc1nnc(COc2cccc3cccnc23)o1 [4a, 2-(Ethylthio)-5-[(quinolin-8-yloxy)methyl]-1,3,4-oxadiazole] | 70.9 | > 500 | 2.67 | 41.6 | > 500 | 80.7 to 83.1 |  |  |  |  | 
Sc1nnc(COc2cccc3cccnc23)o1 [compound 3, 5-[(Quinolin-8-yloxy)methyl]-1,3,4-oxadiazole-2-thiol] | 25.2 | > 500 | 464 | 34.7 | > 500 |  |  |  |  |  | 
Brc1cccc(CSc2nnc(COc3cccc4cccnc34)o2)c1 [4q, 2-[(3-Bromobenzyl)thio]-5-[(quinolin-8-yloxy)methyl]-1,3,4-oxadiazole] | 78.6 | > 500 | > 500 | 29.6 | 427 |  |  |  |  |  | 
Clc1ccc(-n2cc(CSc3nnc(COc4cccc5cccnc45)o3)nn2)c(Cl)c1 [12r, 2-{[(1-(2,4-Dichlorophenyl)-1H-1,2,3-triazol-4-yl)methyl]thio}-5-[(quinolin-8-yloxy)methyl]-1,3,4-oxadiazole] | 101 | > 500 | > 500 | 48.5 | > 500 | 112 to 116 |  |  |  |  | 
C=CCSc1nnc(COc2cccc3cccnc23)o1 [4f, 2-(Allylthio)-5-[(quinolin-8-yloxy)methyl]-1,3,4-oxadiazole] | 72.1 | > 500 | > 500 | 34.5 | > 500 |  |  |  |  |  | 
Fc1cccc(CSc2nnc(COc3cccc4cccnc34)o2)c1 [4o, 2-[(3-Fluorobenzyl)thio]-5-[(quinolin-8-yloxy)methyl]-1,3,4-oxadiazole] | 76.9 | > 500 | > 500 | 48.8 | > 500 |  |  |  |  |  | 
Brc1ccc(CSc2nnc(COc3cccc4cccnc34)o2)cc1 [4m, 2-[(4-Bromobenzyl)thio]-5-[(quinolin-8-yloxy)methyl]-1,3,4-oxadiazole] | 85.2 | > 500 | > 500 |  | > 500 | 120.9 to 124.1 |  |  |  | 28.3 | 
O=[N+]([O-])c1ccc(Cn2cc(CSc3nnc(COc4cccc5cccnc45)o3)nn2)cc1 [12g, 2-{[(1-(4-Nitrobenzyl)-1H-1,2,3-triazol-4-yl)methyl]thio}-5-[(quinolin-8-yloxy)methyl]-1,3,4-oxadiazole] | 81.9 | > 500 | 3.01 | 46.5 | > 500 | 100 to 106 |  |  |  |  | 
O=C1O[C@H]([C@@H](O)CO)C(O)=C1O [Ascorbic acid, reference compound] |  | 103 |  |  |  |  |  |  |  |  | 
Fc1ccc(Cn2cc(CSc3nnc(COc4cccc5cccnc45)o3)nn2)cc1F [12j, 2-{[(1-(3,4-Difluorobenzyl)-1H-1,2,3-triazol-4-yl)methyl]thio}-5-[(quinolin-8-yloxy)methyl]-1,3,4-oxadiazole] | 102 | > 500 | > 500 | 59 | > 500 |  |  |  |  |  | 
CCCCCCSc1nnc(COc2cccc3cccnc23)o1 [4e, 2-(Hexylthio)-5-[(quinolin-8-yloxy)methyl]-1,3,4-oxadiazole] | 75.7 | > 500 | > 500 | 48.1 | 210 |  |  |  |  |  | 
CCCCCCn1cc(CSc2nnc(COc3cccc4cccnc34)o2)nn1 [12b, 2-{[(1-Hexyl-1H-1,2,3-triazol-4-yl)methyl]thio}-5-[(quinolin-8-yloxy)methyl]-1,3,4-oxadiazole] | 80 | > 500 | > 500 | 36.7 | > 500 |  |  |  |  |  | 
O=C(O)c1cc(O)c(O)c(O)c1 [Gallic acid, reference compound] | 26.6 | 17.9 | 729 |  |  |  |  |  |  |  | 
Clc1cccc(CSc2nnc(COc3cccc4cccnc34)o2)c1 [4p, 2-[(3-Chlorobenzyl)thio]-5-[(quinolin-8-yloxy)methyl]-1,3,4-oxadiazole] | 68 | > 500 | > 500 | 29.6 | > 500 |  |  |  |  |  | 
